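The compound was tested at five concentrations on cells cultured in 96-well plates, with a 48-hour exposure period. Definition used: TGI = concentration required for complete inhibition of growth.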

Among the test systems are 786-0 renal; ACHN renal; SF-295 CNS; SK-MEL-5 melanoma; SN12C renal; SNB-19 CNS; SNB-75 CNS; SR leukemia; T-47D breast; TK-10 renal; UACC-257 melanoma.
Common to all, as to assay: NCI anticancer screen, dose series, 48 h

With `COC1CC(C)(NC(=O)C(F)(F)F)C2OC(c3ccccc3)OCC2O1` (configuration not stated), the TGI in the assay on 786-0 renal, in the assay on ACHN renal, in the assay with SF-295 CNS, in the assay on SK-MEL-5 melanoma, in the assay on SN12C renal and with SNB-19 CNS was greater than 100 µM throughout. In addition, the TGI in the assay on SNB-75 CNS, in the assay on SR leukemia, in the assay on T-47D breast, in the assay on TK-10 renal and in the assay with UACC-257 melanoma was greater than 100 µM each time.
With `CCCCCC[C@H]([C@H](C)O)n1cnc2c(N)ncnc21`, the TGI with 786-0 renal, in the assay on ACHN renal, in the assay with SF-295 CNS, with SK-MEL-5 melanoma, in the assay on SN12C renal and in the assay on SNB-19 CNS was greater than 100 µM in each case. The TGI in the assay with SNB-75 CNS, in the assay on SR leukemia, in the assay with T-47D breast, in the assay with TK-10 renal and with UACC-257 melanoma was greater than 100 µM each time.
In the case of `C=C(Br)CN=CN(C)C`, the TGI in the assay with 786-0 renal, with ACHN renal, in the assay on SF-295 CNS, in the assay with SK-MEL-5 melanoma, with SN12C renal and in the assay on SNB-19 CNS was greater than 100 µM each time. In addition, the TGI in the assay on SNB-75 CNS, in the assay on SR leukemia, with T-47D breast, in the assay with TK-10 renal and in the assay on UACC-257 melanoma was greater than 100 µM each time.
For the compound `CCOC(=O)c1cc(-c2ccc(OC)cc2)c([N+](=O)[O-])[nH]1`, the TGI in the assay on 786-0 renal, with ACHN renal, with SF-295 CNS, in the assay with SK-MEL-5 melanoma, in the assay on SN12C renal and with SNB-19 CNS was greater than 10 µM each time. Besides, the TGI with SNB-75 CNS, with SR leukemia, in the assay on T-47D breast, with TK-10 renal and in the assay with UACC-257 melanoma was greater than 10 µM throughout.
Consider `CN1CCN(C(=O)c2cn(Cc3cncn3Cc3ccc4c(c3)OCO4)cc2-c2cccc3ccccc23)CC1`, for which the TGI is greater than 86 µM in the assay with 786-0 renal; greater than 100 µM in the assay with ACHN renal; 70.6 µM with SF-295 CNS; 37.4 µM with SK-MEL-5 melanoma; greater than 100 µM in the assay on SN12C renal; greater than 100 µM in the assay with SNB-19 CNS. Also, the TGI is 67.9 µM with SNB-75 CNS; 10.3 µM in the assay with SR leukemia; greater than 100 µM with T-47D breast; greater than 100 µM in the assay on TK-10 renal; 42.7 µM in the assay on UACC-257 melanoma.
`O=c1[nH]c(=O)n(COC(CO)CO)cc1-c1ccccc1`: the TGI in the assay on 786-0 renal, with ACHN renal, with SF-295 CNS, in the assay on SK-MEL-5 melanoma, in the assay on SN12C renal and in the assay with SNB-19 CNS was greater than 100 µM throughout. Further, the TGI in the assay on SNB-75 CNS, in the assay with SR leukemia, in the assay on T-47D breast, with TK-10 renal and with UACC-257 melanoma was greater than 100 µM in each case.
Regarding `COC1(CC[C@@H](C)COC2OC(CO)C(O)C(O)C2O)OC2C[C@H]3[C@@H]4CC[C@H]5C[C@@H](OC6OC(CO)C(OC7OC(CO)C(O)C(O)C7O)C(O)C6OC6OC(C)C(O)C(O)C6O)[C@H](O)C[C@]5(C)[C@H]4CC[C@]3(C)C2[C@@H]1C` (some centres not stated), the TGI worked out at 4.04 µM with 786-0 renal; 3.33 µM with ACHN renal; 3.28 µM with SF-295 CNS; 3.36 µM in the assay on SK-MEL-5 melanoma; 3.42 µM with SN12C renal; 3.55 µM in the assay on SNB-19 CNS. Besides, the TGI in the assay with SNB-75 CNS is 3.49 µM; in the assay with SR leukemia it was 16.8 µM; with T-47D breast, 9.01 µM; with TK-10 renal it was 3.82 µM; with UACC-257 melanoma, 3.5 µM.
As for `Cc1ccccc1NC(=O)O/N=C(\Cl)C(C)C`, the TGI in the assay on 786-0 renal was 3.45 µM; in the assay on ACHN renal, 3.13 µM; with SF-295 CNS it was 33.7 µM; in the assay with SK-MEL-5 melanoma, 25.9 µM; in the assay on SN12C renal, 3.2 µM; in the assay with SNB-19 CNS, 41.9 µM. Besides, the TGI in the assay on SNB-75 CNS is 32.1 µM; in the assay on SR leukemia, greater than 100 µM; with T-47D breast, 11.3 µM; with TK-10 renal, 8.19 µM; in the assay on UACC-257 melanoma, 28.7 µM.
With `O=C1NC(O)c2cc3ccccc3cc2O1` (configuration not stated), the TGI in the assay with 786-0 renal, in the assay with ACHN renal, in the assay with SF-295 CNS, in the assay with SK-MEL-5 melanoma, in the assay with SN12C renal and with SNB-19 CNS was greater than 100 µM in each case. In addition, the TGI in the assay with SNB-75 CNS was greater than 100 µM; with SR leukemia it was 71.3 µM; in the assay with T-47D breast, greater than 100 µM; in the assay with TK-10 renal, greater than 100 µM; in the assay with UACC-257 melanoma, greater than 100 µM.
Consider `CC(=O)NC1C(OCc2ccccc2)OC(CO)C(O)C1OC(C)C(=O)N[C@@H](C)C(=O)N[C@H](CCC(=O)NCCNCCNc1c2ccccc2nc2cccc([N+](=O)[O-])c12)C(N)=O` (some centres not stated), for which the TGI with 786-0 renal stood at 0.921 µM; with ACHN renal, 0.512 µM; in the assay with SF-295 CNS, 1.79 µM; in the assay with SK-MEL-5 melanoma it was 0.0635 µM; with SN12C renal, 0.99 µM; in the assay with SNB-19 CNS, 1.86 µM. Besides, the TGI was 0.883 µM in the assay on SNB-75 CNS; greater than 71.4 µM in the assay with SR leukemia; 0.598 µM with T-47D breast; 3.54 µM with TK-10 renal; 0.753 µM with UACC-257 melanoma.
Consider `CCc1nc(N)c2nc(-c3cccs3)oc2n1`, for which the TGI with 786-0 renal, with ACHN renal, in the assay on SF-295 CNS, in the assay on SK-MEL-5 melanoma, in the assay on SN12C renal and with SNB-19 CNS was greater than 100 µM each time. Further, the TGI in the assay with SNB-75 CNS, with SR leukemia, with T-47D breast, in the assay with TK-10 renal and with UACC-257 melanoma was greater than 100 µM in each case.
In the case of `C=C1CCC[C@@H](C)C(O)[C@@H]2OC(=O)C(=C)[C@@H]2C[C@@H](OC(C)=O)[C@@]2(C)CC[C@@H]1O2` (some centres not stated), the TGI in the assay on 786-0 renal is 20.1 µM; with ACHN renal, 13.4 µM; in the assay with SF-295 CNS it was 38.5 µM; in the assay on SK-MEL-5 melanoma, 13.7 µM; in the assay with SN12C renal it was 16 µM; in the assay with SNB-19 CNS it was greater than 50 µM. The TGI in the assay with SNB-75 CNS was 10.1 µM; with SR leukemia it was 9.91 µM; in the assay with T-47D breast, 19.2 µM; with TK-10 renal it was 14.8 µM; in the assay with UACC-257 melanoma, 15.2 µM.

The values above are taken from PubChem BioAssay (NCI).
